Reference: patent US10435399B2, “HDAC6 inhibitory heterocyclic compound” (TAKEDA PHARMACEUTICAL COMPANY LIMITED, priority 2017, dated 2019)

These molecules were tested against T1, HDAC6 enzyme (Homo sapiens, UniProt Q9UBN7) (assay: HDAC6 enzyme inhibitory activity (HDAC-Glo I/II Assay kit)). Conditions: 10 μM; wells without enzyme = 100% inhibition; read-out: HDAC6 inhibitory rate (%) (10 μM).
T1 construct: transducing full length HDAC6 gene into Sf-9 insect cells; GST; purchased SignalChem; host or cells: Sf-9 insect cells
T1 sequence (Q9UBN7 1-1215): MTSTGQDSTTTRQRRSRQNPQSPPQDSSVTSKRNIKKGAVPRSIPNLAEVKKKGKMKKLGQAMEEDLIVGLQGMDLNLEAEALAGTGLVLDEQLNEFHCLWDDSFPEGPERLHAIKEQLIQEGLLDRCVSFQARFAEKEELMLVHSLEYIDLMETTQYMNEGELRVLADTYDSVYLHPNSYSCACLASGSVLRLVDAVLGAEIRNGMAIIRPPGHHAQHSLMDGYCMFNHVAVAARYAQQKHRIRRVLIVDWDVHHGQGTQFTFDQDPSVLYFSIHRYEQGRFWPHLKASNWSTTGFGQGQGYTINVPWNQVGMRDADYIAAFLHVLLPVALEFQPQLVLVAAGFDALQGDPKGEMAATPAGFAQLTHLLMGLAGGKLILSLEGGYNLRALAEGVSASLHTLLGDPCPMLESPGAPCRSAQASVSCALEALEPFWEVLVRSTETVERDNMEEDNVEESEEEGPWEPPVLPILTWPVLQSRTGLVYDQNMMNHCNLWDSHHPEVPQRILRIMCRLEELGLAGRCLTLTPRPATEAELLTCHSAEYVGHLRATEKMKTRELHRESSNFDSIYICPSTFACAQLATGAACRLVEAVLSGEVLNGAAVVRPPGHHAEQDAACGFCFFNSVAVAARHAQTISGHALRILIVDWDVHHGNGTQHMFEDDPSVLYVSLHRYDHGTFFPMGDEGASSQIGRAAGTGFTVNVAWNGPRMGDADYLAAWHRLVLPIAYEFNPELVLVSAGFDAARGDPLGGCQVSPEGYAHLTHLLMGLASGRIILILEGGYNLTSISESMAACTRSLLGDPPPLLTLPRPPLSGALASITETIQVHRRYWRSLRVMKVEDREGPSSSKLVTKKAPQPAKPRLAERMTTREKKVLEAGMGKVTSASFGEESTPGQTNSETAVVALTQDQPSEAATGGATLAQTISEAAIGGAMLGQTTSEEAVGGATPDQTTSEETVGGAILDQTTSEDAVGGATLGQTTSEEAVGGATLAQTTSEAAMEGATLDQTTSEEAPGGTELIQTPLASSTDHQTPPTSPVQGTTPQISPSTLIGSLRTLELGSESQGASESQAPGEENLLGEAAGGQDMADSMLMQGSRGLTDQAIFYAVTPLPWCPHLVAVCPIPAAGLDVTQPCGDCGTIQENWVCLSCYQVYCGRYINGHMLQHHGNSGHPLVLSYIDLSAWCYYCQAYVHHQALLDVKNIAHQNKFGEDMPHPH
Format: biochemical
Method: HDAC6 enzyme prepared by transducing full length HDAC6 gene into Sf-9 insect cells and purifying by GST affinity column were purchased from SignalChem. Using this enzyme, HDAC6 enzyme inhibitory activities of the compound of the present invention were evaluated. Enzymes were used after preserved at −70° C. HDAC6 enzyme inhibitory activity of the compound of the present invention was measured using HDAC-Glo™ I/II Assay kit (Promega) according to the following experimental method. The test compound diluted with assay buffer (24 mM Tris-HCl (pH 7.5), 1 mM MgCl2, 0.35 mM KCl, 135 mM NaCl, 0.6 mM Glutathione, 0.01% Tween-20) was added to a 384-well plate by each 2 μL. Then, HDAC6 enzyme solution diluted with assay buffer was added thereto by each 4 μL, and the plate was incubated at room temperature for 60 min. After incubated, HDAC substrate-Developer solution prepared according to Promega protocol attached to the assay kit was added to the 384-well plate by each 2 μL, and the enzyme reaction was started. After reacting at room temperature for 20 min, luminescence level was measured using plate reader Envision (PerkinElmer). The inhibitory activity of each compound of Example was calculated as a relative activity value when luminescence level in wells without enzyme is considered as 100% inhibition.

| SMILES | inhibition at 10 µM [%] |
| --- | --- |
| COC(=O)N1CC[C@@H](c2ccc(F)cc2)[C@H](N2Cc3ccc(-c4nnc(C(F)F)o4)cc3C2=O)C1 (racemic) [Example 504, methyl (3SR,4SR)-3-(6-(5-(difluoro-methyl)-1,3,4-oxadiazol-2-yl)-1-oxo-1,3-dihydro-2H-isoindol-2-yl)-4-(4-fluoro-phenyl) piperidine-1-carboxylate] | 100 |
| O=C1c2cc(-c3nnc(C(F)F)o3)cnc2CN1[C@@H]1CCCC[C@H]1n1cccn1 (racemic) [Example 526, 3-(5-(difluoromethyl)-1,3,4-oxadiazol-2-yl)-6-((1RS,2RS)-2-(1H-pyrazol-1-yl)cyclohexyl)-6,7-dihydro-5H-pyrrolo[3,4-b]pyridin-5-one] | 101 |
| O=C1c2cc(-c3nnc(C(F)F)o3)cnc2CN1[C@@H]1CCCC[C@H]1Oc1ccc(F)cc1 (racemic) [Example 535, 3-(5-(difluoromethyl)-1,3,4-oxadiazol-2-yl)-6-((1RS,2RS)-2-(4-fluorophenoxy)cyclohexyl)-6,7-dihydro-5H-pyrrolo[3,4-b]pyridin-5-one] | 99 |
| O=C(C(F)F)N1CC[C@@H](c2ccc(F)cc2)[C@H](N2Cc3ccc(-c4nnc(C(F)F)o4)cc3C2=O)C1 (racemic) [Example 546, 2-((3SR,4SR)-1-(difluoroacetyl)-4-(4-fluorophenyl)piperidin-3-yl)-6-(5-(difluoromethyl)-1,3,4-oxadiazol-2-yl)isoindolin-1-one] | 100 |
| O=C1c2cc(-c3nnc(C(F)F)o3)ccc2CN1[C@@H]1CN(C(=O)C(F)(F)C(F)(F)F)CC[C@H]1c1ccc(F)cc1 (racemic) [Example 548, 6-(5-(difluoromethyl)-1,3,4-oxadiazol-2-yl)-2-((3SR,4SR)-4-(4-fluorophenyl)-1-(2,2,3,3,3-pentafluoropropanoyl)piperidin-3-yl)isoindolin-1-one] | 100 |
| CC(C)(C)OC(=O)N1CCC[C@H](N2Cc3ccc(-c4nnc(C(F)F)o4)cc3C2=O)[C@H]1c1ccc(F)cc1 (racemic) [Example 574, tert-butyl (2RS,3SR)-3-(6-(5-(difluoromethyl)-1,3,4-oxadiazol-2-yl)-1-oxo-1,3-dihydro-2H-isoindol-2-yl)-2-(4-fluorophenyl)piperidine-1-carboxylate] | 100 |
| CC(F)(F)C(=O)N1CCC[C@H](N2Cc3ccc(-c4nnc(C(F)F)o4)cc3C2=O)[C@H]1c1ccc(F)cc1 (racemic) [Example 576, 6-(5-(difluoromethyl)-1,3,4-oxadiazol-2-yl)-2-((2RS,3SR)-1-(2,2-difluoropropanoyl)-2-(4-fluorophenyl)piperidin-3-yl)isoindolin-1-one] | 99 |
| O=C1c2cc(-c3nnc(C(F)F)o3)ccc2CN1[C@H]1CCCN(C(=O)C(F)(F)C(F)(F)F)[C@@H]1c1ccc(F)cc1 (racemic) [Example 577, 6-(5-(difluoromethyl)-1,3,4-oxadiazol-2-yl)-2-((2RS,3SR)-2-(4-fluorophenyl)-1-(2,2,3,3,3-pentafluoropropanoyl)piperidin-3-yl)isoindolin-1-one] | 97 |
| COC(=O)N1CCC[C@H](N2Cc3ccc(-c4nnc(C(F)F)o4)cc3C2=O)[C@H]1c1ccc(F)cc1 (racemic) [Example 578, methyl (2RS,3SR)-3-(6-(5-(difluoromethyl)-1,3,4-oxadiazol-2-yl)-1-oxo-1,3-dihydro-2H-isoindol-2-yl)-2-(4-fluorophenyl)piperidine-1-carboxylate] | 100 |

Next, values leading:

| inhibition at 10 µM [%] | SMILES |
| --- | --- |
| 101 | O=C(N[C@@H]1CCCC[C@H]1N1Cc2ccc(-c3nnc(C(F)F)o3)cc2C1=O)[C@H]1C[C@H]1F (mixture of isomers) [Example 111, (1RS,2RS)-N-((1R,2R)-2-(6-(5-(difluoromethyl)-1,3,4-oxadiazol-2-yl)-1-oxo-1,3-dihydro-2H-isoindol-2-yl)cyclohexyl)-2-fluorocyclopropanecarboxamide] |
| 101 | O=C(N[C@@H]1CCCC[C@H]1N1Cc2ccc(-c3nnc(C(F)F)o3)cc2C1=O)[C@@H]1C[C@H]1F (racemic) [Example 69, (1SR,2RS)-N-((1R,2R)-2-(6-(5-(difluoromethyl)-1,3,4-oxadiazol-2--yl)-1-oxo-1,3-dihydro-2H-isoindol-2-yl)cyclohexyl)-2-fluorocyclopropanecarboxamide] |
| 99 | O=C1c2cc(-c3nnc(C(F)F)o3)ccc2CN1[C@@H]1CCCC[C@H]1n1cccn1 (racemic) [Example 514, 6-(5-(difluoromethyl)-1,3,4-oxadiazol-2-yl)-2-((1RS,2RS)-2-(1H-pyrazol-1-yl)cyclohexyl)isoindolin-1-one] |
| 99 | O=C1c2cc(-c3nnc(C(F)F)o3)ccc2CN1[C@H]1CCCC[C@H]1n1cccn1 (racemic) [Example 527, 6-(5-(difluoromethyl)-1,3,4-oxadiazol-2-yl)-2-((1SR,2RS)-2-(1H-pyrazol-1-yl)cyclohexyl)isoindolin-1-one] |
| 99 | O=C1c2cc(-c3nnc(C(F)F)o3)cnc2CN1[C@H]1CCCC[C@H]1n1cccn1 (racemic) [Example 541, 3-(5-(difluoromethyl)-1,3,4-oxadiazol-2-yl)-6-((1SR,2RS)-2-(1H-pyrazol-1-yl)cyclohexyl)-6,7-dihydro-5H-pyrrolo[3,4-b]pyridin-5-one] |
| 100 | O=C1c2cc(-c3nnc(C(F)F)o3)ccc2CN1[C@@H]1CCCC[C@H]1c1ncco1 (racemic) [Example 549, 6-(5-(difluoromethyl)-1,3,4-oxadiazol-2-yl)-2-((1RS,2RS)-2-(1,3-oxazol-2-yl)cyclohexyl)isoindolin-1-one] |
| 97 | N#C[C@@H]1CCCC[C@H]1N1Cc2ccc(-c3nnc(C(F)F)o3)cc2C1=O (racemic) [Example 556, (1RS,2RS)-2-(6-(5-(difluoromethyl)-1,3,4-oxadiazol-2-yl)-1-oxo-1,3-dihydro-2H-isoindol-2-yl)cyclohexanecarbonitrile] |
| 99 | O=C1c2cc(-c3nnc(C(F)F)o3)ccc2CN1[C@@H]1CCCC[C@H]1c1noc(C2CC2)n1 (racemic) [Example 558, 2-((1RS,2RS)-2-(5-cyclopropyl-1,2,4-oxadiazol-3-yl)cyclohexyl)-6-(5-(difluoromethyl)-1,3,4-oxadiazol-2-yl)isoindolin-1-one] |
| 100 | O=C1c2cc(-c3nnc(C(F)F)o3)ccc2CN1[C@@H]1CCCC[C@H]1Oc1cncc(F)c1 (racemic) [Example 559, 6-(5-(difluoromethyl)-1,3,4-oxadiazol-2-yl)-2-((1RS,2RS)-2-((5-fluoropyridin-3-yl)oxy)cyclohexyl)isoindolin-1-one] |
| 100 | O=C1c2cc(-c3nnc(C(F)F)o3)ccc2CN1[C@@H]1CCCC[C@H]1c1nc(C2CC2)no1 (racemic) [Example 561, 2-((1RS,2RS)-2-(3-cyclopropyl-1,2,4-oxadiazol-5-yl)cyclohexyl)-6-(5-(difluoromethyl)-1,3,4-oxadiazol-2-yl)isoindolin-1-one] |
| 100 | O=C1c2cc(-c3nnc(C(F)F)o3)ccc2CN1[C@H]1CCCN[C@@H]1c1ccc(F)cc1 (racemic) [Example 575, 6-(5-(difluoromethyl)-1,3,4-oxadiazol-2-yl)-2-((2RS,3SR)-2-(4-fluorophenyl)piperidin-3-yl)isoindolin-1-one] |
